Data from PubChem BioAssay (NCI).
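How tested: cells in 96-well plates exposed to compound for 48 hours at five concentrations. Abbreviation: GI50, concentration required for 50% inhibition of growth. TGI: total growth inhibition.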

Tests used:
Experiment in all cases: NCI tumour cell line growth inhibition, 48 h; in the data active means GI50 below about 0.43 µM; inactive means the rest
SK-OV-3 ovarian = system: SK-OV-3 ovarian
SNB-75 CNS = system: SNB-75 CNS
HS 578T breast = system: HS 578T breast
PC-3 prostate = system: PC-3 prostate
T-47D breast = system: T-47D breast
ACHN renal = system: ACHN renal
HCT-15 colon = system: HCT-15 colon
HOP-92 NSCLC = system: HOP-92 NSCLC
SF-295 CNS = system: SF-295 CNS
KM12 colon = system: KM12 colon

N#Cc1cc2c(cc1Cl)SC(=Nc1ccccc1)N(S(=O)(=O)c1ccc(Br)s1)S2(=O)=O
> 100 µM: TGI (SK-OV-3 ovarian)
38.8 µM: TGI (HCT-15 colon)
inactive: GI50 (SK-OV-3 ovarian) 39.6 µM | GI50 (SNB-75 CNS) 24 µM | GI50 (HS 578T breast) 24 µM | GI50 (PC-3 prostate) 17.8 µM | GI50 (T-47D breast) 24.3 µM | GI50 (ACHN renal) 19.7 µM | GI50 (HCT-15 colon) 17.9 µM | GI50 (HOP-92 NSCLC) 17.6 µM | GI50 (SF-295 CNS) 30.4 µM | GI50 (KM12 colon) 18.7 µM
51.7 µM: TGI (SNB-75 CNS)
75 µM: TGI (T-47D breast)
89.5 µM: TGI (SF-295 CNS)
53.9 µM: TGI (HS 578T breast)
37.3 µM: TGI (PC-3 prostate) | TGI (ACHN renal)
35.7 µM: TGI (KM12 colon)
39.7 µM: TGI (HOP-92 NSCLC)

COc1ccc(/C=C/C(=O)c2ccc(Nc3nc(Nc4ccc(F)cc4)nc(Nc4ccc(F)cc4)n3)cc2)cc1
31.4 µM: TGI (HOP-92 NSCLC)
52.5 µM: TGI (T-47D breast)
> 100 µM: TGI (SNB-75 CNS) | TGI (ACHN renal) | TGI (HCT-15 colon)
inactive: GI50 (SK-OV-3 ovarian) 17.1 µM | GI50 (SNB-75 CNS) 30.6 µM | GI50 (HS 578T breast) 14.4 µM | GI50 (PC-3 prostate) 5.06 µM | GI50 (T-47D breast) 5.42 µM | GI50 (ACHN renal) 30.4 µM | GI50 (HCT-15 colon) 14.4 µM | GI50 (HOP-92 NSCLC) 8.8 µM | GI50 (SF-295 CNS) 14.2 µM | GI50 (KM12 colon) 7.62 µM
42.7 µM: TGI (SF-295 CNS)
59.6 µM: TGI (HS 578T breast)
21.4 µM: TGI (PC-3 prostate)
88.4 µM: TGI (SK-OV-3 ovarian)
29.3 µM: TGI (KM12 colon)

O=C1C(OC(=O)c2ccccc2)=C(c2ccc(O)cc2)C(=O)C(OC(=O)c2ccccc2)=C1c1ccc(O)cc1
> 100 µM: TGI (SK-OV-3 ovarian) | TGI (SNB-75 CNS) | TGI (HS 578T breast) | TGI (PC-3 prostate) | TGI (T-47D breast) | TGI (ACHN renal) | TGI (HCT-15 colon) | TGI (HOP-92 NSCLC) | TGI (SF-295 CNS) | TGI (KM12 colon)

Cc1c2ccccc2c(C)n2c1nc1cc(Cl)c(Cl)cc12
inactive: GI50 (SK-OV-3 ovarian) > 100 µM | GI50 (SNB-75 CNS) 36.9 µM | GI50 (HS 578T breast) > 100 µM | GI50 (PC-3 prostate) 31.4 µM | GI50 (T-47D breast) 3.95 µM | GI50 (ACHN renal) 26 µM | GI50 (HCT-15 colon) 93.5 µM | GI50 (HOP-92 NSCLC) > 100 µM | GI50 (SF-295 CNS) > 100 µM | GI50 (KM12 colon) > 100 µM
> 100 µM: TGI (SK-OV-3 ovarian) | TGI (SNB-75 CNS) | TGI (HS 578T breast) | TGI (PC-3 prostate) | TGI (T-47D breast) | TGI (ACHN renal) | TGI (HCT-15 colon) | TGI (HOP-92 NSCLC) | TGI (SF-295 CNS) | TGI (KM12 colon)

O=C1/C(=C/c2ccc(O)cc2)Oc2ccccc21
> 100 µM: TGI (SK-OV-3 ovarian) | TGI (SNB-75 CNS) | TGI (HS 578T breast) | TGI (PC-3 prostate) | TGI (T-47D breast) | TGI (ACHN renal) | TGI (HCT-15 colon) | TGI (HOP-92 NSCLC) | TGI (SF-295 CNS) | TGI (KM12 colon)

Cc1cn2cc(-c3ccc4c(c3)CC(=O)N4)nc2s1
> 100 µM: TGI (SK-OV-3 ovarian) | TGI (SNB-75 CNS) | TGI (HS 578T breast) | TGI (PC-3 prostate) | TGI (T-47D breast) | TGI (ACHN renal) | TGI (HCT-15 colon) | TGI (HOP-92 NSCLC) | TGI (SF-295 CNS) | TGI (KM12 colon)
inactive: GI50 (SK-OV-3 ovarian) > 100 µM | GI50 (SNB-75 CNS) > 100 µM | GI50 (HS 578T breast) > 100 µM | GI50 (PC-3 prostate) > 100 µM | GI50 (T-47D breast) 43.4 µM | GI50 (ACHN renal) 49.7 µM | GI50 (HCT-15 colon) 67 µM | GI50 (HOP-92 NSCLC) > 100 µM | GI50 (SF-295 CNS) > 100 µM | GI50 (KM12 colon) 44.2 µM

Cc1nc2sc(C(=O)Nc3ccccc3)c(N)c2cc1C(=O)c1ccccc1
inactive: GI50 (SK-OV-3 ovarian) 2.35 µM | GI50 (SNB-75 CNS) 1.87 µM | GI50 (HS 578T breast) 2.47 µM | GI50 (PC-3 prostate) 1.66 µM | GI50 (T-47D breast) 2.94 µM | GI50 (ACHN renal) 4.52 µM | GI50 (HCT-15 colon) 2.19 µM | GI50 (HOP-92 NSCLC) 9.47 µM | GI50 (SF-295 CNS) 1.83 µM | GI50 (KM12 colon) 2.04 µM
> 50 µM: TGI (SK-OV-3 ovarian) | TGI (SNB-75 CNS) | TGI (HS 578T breast) | TGI (PC-3 prostate) | TGI (T-47D breast) | TGI (ACHN renal) | TGI (HCT-15 colon) | TGI (HOP-92 NSCLC) | TGI (SF-295 CNS) | TGI (KM12 colon)
